Measured values reported in EP0533240A2, “Substituted amine derivatives of piperazinylcamphorsulfonyl oxytocin antagonists” (MERCK & CO. INC., priority 1991, dated 1993).

Each molecule was assayed against T1, uterine OT receptors (Rattus norvegicus, UniProt P70536) (assay: [3H]Oxytocin radioligand binding assay, crude uterine membrane preparation). Settings: at 100 nM compound; 1 nM [3H]OT, rat uterine membranes.
T1 construct: from tissue; host or cells: uterus of DES-treated rats, crude membrane preparation
T1 sequence (P70536 1-388): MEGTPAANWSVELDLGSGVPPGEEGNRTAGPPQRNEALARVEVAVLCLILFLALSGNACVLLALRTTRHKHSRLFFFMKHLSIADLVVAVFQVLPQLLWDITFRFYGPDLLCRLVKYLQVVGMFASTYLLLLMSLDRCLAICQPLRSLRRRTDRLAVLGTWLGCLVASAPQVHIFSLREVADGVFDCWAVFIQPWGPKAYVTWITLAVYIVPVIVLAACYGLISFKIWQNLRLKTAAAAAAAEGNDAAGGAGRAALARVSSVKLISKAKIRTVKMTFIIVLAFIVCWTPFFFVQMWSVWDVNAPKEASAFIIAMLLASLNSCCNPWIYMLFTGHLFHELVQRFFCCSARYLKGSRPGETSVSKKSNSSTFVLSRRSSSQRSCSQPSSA
Parameters: species or system rats
Experimental: Oxytocin (OT)([tyrosyl, 3,5-[^3H]OT; 30-60 Ci/mmol; New England Nuclear. Boston, MA) to uterine OT receptors was based on an assay*using a crude membrane preparation of uteri taken from diethylstilbestrol dipropionate (DES)-treated (0.3 mg/kg, ip; 18-24) rats. Competetion studies were conducted at equilibrium (60 minutes; 22 °C) using 1 nM[^3H]OT in the following assay buffer: 50 mM Tris-HCI, 5 mM MgCl2, and 0.1% BSA, pH 7.4. Nonspecific binding (10% of the total binding) was determined using 1µM unlabeled OT and the binding reaction was terminated by filtration through glass fiber filters using a cell harvester (model 7019, Skatron, Inc., Sterling, VA).
Work on `C=CC1(O)CC2CCC1(CS(=O)(=O)N1CCN(c3ccccc3C)CC1)C2(C)C` (stereo not drawn) [Example 12, 1-((7,7-dimethyl-2-exo-hydroxy-2-endo-ethenyl-bicyclo(2.2.1)heptan-1-yl)methanesulfonyl)-4-(2-methylphenyl)piperazine] yielded an inhibition at 0.1 µM of 23%.

Same assay, conditions: at 1,000 nM compound; 1 nM [3H]OT, rat uterine membranes
For `Cc1ccccc1N1CCN(S(=O)(=O)CC23CCC(CC2=CCN)C3(C)C)CC1` (stereo not shown) [Example 16, 1-((7,7-dimethyl-2-(2-amino)ethylidine-bicyclo(2.2.1)heptan-1-yl)methanesulfonyl)-4-(2-methylphenyl)-piperazine], the inhibition at 1 µM was 64%. `Cc1ccccc1N1CCN(S(=O)(=O)CC23CCC(CC2=CCN=[N+]=[N-])C3(C)C)CC1` (stereo not shown) [Example 15, 1-((7,7-dimethyl-2-(2-azido)ethylidine-bicyclo(2.2.1)heptan-1-yl)methanesulfonyl)-4-(2-methylphenyl)-piperazine] showed an inhibition at 1 µM of 44%. Work on `Cc1ccccc1N1CCN(S(=O)(=O)CC23CCC(C=C2C(=O)O)C3(C)C)CC1` (stereo not shown) [Example 21, 1-((7,7-DIMETHYL-2-CARBOXY-BICYCLO(2.2.1) HEPT-2-EN-1 -YL)METHANESULFONYL)-4-(2-METHYLPHENYL)PIPERAZINE] yielded an inhibition at 1 µM of 38%. In the case of `Cc1ccccc1N1CCN(S(=O)(=O)CC23CCC(C=C2C(=O)NCCc2c[nH]cn2)C3(C)C)CC1` (stereo not shown) [Example 22, 1-((7,7-DIMETHYL-2-(4-IMIDAZOLYL)ETHYLAMINOCARBONYL-BICYCLO(2.2.1 )HEPT-2-EN-1-YL)-METHANESULFONYL)-4-(2-METHYLPHENYL)PIPERAZINE], the inhibition at 1 µM is reported as 78%. In the case of `Cc1ccccc1N1CCN(S(=O)(=O)CC23CCC(CC2(O)CNCC(C)C)C3(C)C)CC1` (stereo not drawn) [Example 19, 1-((7,7-DIMETHYL-2-EXO-HYDROXY-2-ENDO-ISOBUTYLAMINOMETHYL-BICYCLO(2.2.1 )HEPTAN-1-YL)-METHANESULFONYL)-4-(2-METHYLPHENYL)PIPERAZINE], the inhibition at 1 µM is reported as 31%. For `COC(=O)C1=CC2CCC1(CS(=O)(=O)N1CCN(c3ccccc3C)CC1)C2(C)C` (stereo not shown) [Example 20, 1-((7,7-DIMETHYL-2-METHOXYCARBONYL-BICYCLO (2.2.1)HEPT-2-EN-1-YL)METHANESULFONYL)-4-(2-METHYLPHENYL)PIPERAZINE], the inhibition at 1 µM was 72%.

Same assay, conditions: at 10,000 nM compound; 1 nM [3H]OT, rat uterine membranes
`Cc1ccccc1N1CCN(S(=O)(=O)CC23CCC(CC2=O)C3(C)C)C(C)C1=O` (stereo not shown) [Example 31] gave an inhibition at 10 µM of 5%.

Same assay, conditions: competition with 1 nM [3H]OT, 60 minutes, 22 °C, membranes of uteri from DES-treated rats
For `Cc1ccccc1N1CCN(S(=O)(=O)CC23CCC(CC2NC(=O)[C@@H](N)CCS(C)(=O)=O)C3(C)C)CC1=O` (stereo partly drawn) [Example 36, 1-((7,7-DIMETHYL-2-ENDO-(2S-AMINO-4-(METHYLSULFONYL)BUTYRAMIDO)-BICYCLO(2.2.1 )HEPTAN-1-YL)METHANESULFONYL)-4-(2-METHYLPHENYL)-3-PIPERAZINONE], the IC50 was 7.7 nM. With `COC(=O)CCN1CCCC1C(=O)NCC(C)C1(O)CC2CCC1(CS(=O)(=O)N1CCN(c3ccccc3C)CC1)C2(C)C` (stereo not shown) [Example 45] the IC50 was 12 nM. `Cc1ccccc1N1CCN(S(=O)(=O)CC23CCC(CC2(O)C(C)CNC(=O)C2CCCN2)C3(C)C)CC1` (stereo not shown) [Example 4] was tested, and the IC50 was 34 nM. With `Cc1ccccc1N1CCN(S(=O)(=O)CC23CCC(CC2(O)C(C)CNC(=O)C2CCCN(CC(=O)O)C2)C3(C)C)CC1` (stereo not shown) [Example 51] the IC50 was 38 nM. `COC(=O)CCN1CCC(C(=O)NCC(C)C2(O)CC3CCC2(CS(=O)(=O)N2CCN(c4ccccc4C)CC2)C3(C)C)CC1` (stereo not shown) [Example 55] was tested, and the IC50 was 30 nM. `COC(=O)CCN(CCC(=O)OC)CC(C)C1(O)CC2CCC1(CS(=O)(=O)N1CCN(c3ccccc3C)CC1)C2(C)C` (stereo not drawn) [Example 11, 1-((7,7-dimethyl-2-exo-hydroxy-2-endo-2-(1-bis-(2-methoxycarbonylethyl)amino)propylbicyclo(2.2.1)heptan-1-yl)methanesulfonyl)-4-(2-methylphenyl)piperazine] showed an IC50 of 54 nM. `Cc1ccccc1N1CCN(S(=O)(=O)CC23CCC(CC2(O)C(C)CNC(=O)C2CCCN2CCCC(=O)O)C3(C)C)CC1` [Example 6, 1-((7,7-DIMETHYL-2-EXO-HYDROXY-2-ENDO-2-(1-(L-N-(3-CARBOXYPROPYL)PROLYL)AMINO)PROPYL-BICYCLO(2.2.1) HEPTAN-1 -YL)METHANESULFONYL)-4-(2-METHYLPHENYL) PIPERAZINE] showed an IC50 of 10 nM. Molecule `Cc1ccccc1N1CCN(S(=O)(=O)CC23CCC(CC2(O)C(C)CNC(=O)C2CCNCC2)C3(C)C)CC1` (stereo not shown) [Example 54] has an IC50 of 14 nM. In the case of `Cc1ccccc1N1CCN(S(=O)(=O)CC23CCC(CC2NC(=O)Cc2c[nH]cn2)C3(C)C)CC1` (stereo not shown) [Example 43], the IC50 is reported as 110 nM. `Cc1ccccc1N1CCN(S(=O)(=O)CC23CCC(CC2=O)C3(C)C)CC1` (stereo not shown) [Example 1, 1-((7,7-DIMETHYL-2-OXO-BICYCLO(2.2.1)HEPTAN-1-YL) METHANESULFONYL)-4-(2-METHYLPHENYL)-PIPERAZINE] showed an IC50 of 1000 nM. In the case of `Cc1ccccc1N1CCN(S(=O)(=O)CC23CCC(CC2(O)C(C)CNC(=O)C2CN4CCC2CC4)C3(C)C)CC1` (stereo not shown) [Example 8], the IC50 is reported as 18 nM. For `Cc1ccccc1N1CCN(S(=O)(=O)CC23CCC(CC2(O)C(C)CN)C3(C)C)CC1` (single isomer, unassigned) [Example 3, 1-((7,7-DIMETHYL-2-EXO-HYDROXY-2-ENDO-2-(1-AMINO)PROPYL-BICYCLO(2.2.1 )HEPTAN-1-YL)-METHANESULFONYL)-4-(2-METHYLPHENYL)PIPERAZINE], the IC50 was 180 nM. For `Cc1ccccc1N1CCN(S(=O)(=O)CC23CCC(CC2(O)C(C)CNC(=O)C2CCCN2CCC(=O)O)C3(C)C)CC1` (stereo not shown) [Example 46], the IC50 was 20 nM. `COC(=O)CCN1CCCC(C(=O)NCC(C)C2(O)CC3CCC2(CS(=O)(=O)N2CCN(c4ccccc4C)CC2)C3(C)C)C1` (stereo not shown) [Example 48] was tested, and the IC50 was 30 nM. With `Cc1ccccc1N1CCN(S(=O)(=O)CC23CCC(CC2(O)C(C)CNC(=O)C2CCN(CCC(=O)O)CC2)C3(C)C)CC1` (stereo not drawn) [Example 56, 1-((7,7-DIMETHYL-2-EXO-HYDROXY-2-ENDO-2-(1-(4-(1-CARBOXYETHYL)PIPERIDINYLCARBONYL)-AMINO)PROPYL-BICYCLO-(2.2.1)HEPTAN-1-YL)METHANESULFONYL)-4-(2-METHYLPHENYL) PIPERAZINE] the IC50 was 54 nM. In the case of `Cc1ccccc1N1CCN(S(=O)(=O)CC23CCC(CC2(O)C(C)CNC(=O)C2CCCNC2)C3(C)C)CC1` (stereo not drawn) [Example 47, 1-((7,7-DIMETHYL-2-EXO-HYDROXY-2-ENDO-2-(1-(3-PIPERIDINYLCARBONYL)AMINO)PROPYL-BICYCLO-(2.2.1)HEPTAN-1-YL) METHANESULFONYL)-4-(2-METHYLPHENYL)PIPERAZINE], the IC50 is reported as 15 nM. With `CCOC(=O)CCCN1CCCC1C(=O)NCC(C)C1(O)CC2CCC1(CS(=O)(=O)N1CCN(c3ccccc3C)CC1)C2(C)C` [Example 5, 1-((7,7-DIMETHYL-2-EXO-HYDROXY-2-ENDO-2-(1-(L-N-(ETHOXYCARBONYLPROPYL)PROLYL)AMINO)-PROPYL-BICYCLO-(2.2.1)HEPTAN-1-YL)METHANESULFONYL)-4-(2-METHYLPHENYL) PIPERAZINE] the IC50 was 100 nM. Molecule `Cc1ccccc1N1CCN(S(=O)(=O)CC23CCC(CC2(O)C(C)CNC(=O)C2CCCN2CC(=O)O)C3(C)C)CC1` (stereo not shown) [Example 53] has an IC50 of 28 nM. Work on `Cc1ccccc1N1CCN(S(=O)(=O)CC23CCC(CC2(O)C(C)CNC(=O)C2CCCN(CCC(=O)O)C2)C3(C)C)CC1` (stereo not drawn) [Example 49, 1-((7,7-DIMETHYL-2-EXO-HYDROXY-2-ENDO-2-(1-(3-(1-CARBOXYETHYL)PIPERIDINYLCARBONYL)-AMINO)PROPYL-BICYCLO-(2.2.1)HEPTAN-1-YL)METHANESULFONYL)-4-(2-METHYLPHENYL) PIPERAZINE] yielded an IC50 of 25 nM. For `Cc1ccccc1N1CCN(S(=O)(=O)CC23CCC(CC2(O)C(C)CNC(=O)Cc2c[nH]cn2)C3(C)C)CC1` (stereo not shown) [Example 7], the IC50 was 8 nM.
